# Assay results: article PMC12063043, “Exploring Tyramine's Role in the Formation of Supramolecular Adducts with Nonsteroidal Anti‐Inflammatory Drugs” (Chemistry (Weinheim an Der Bergstrasse, Germany), 2025)
# Assays:
# [1] = pKa of the co-former TYA and the APIs, and ΔpKa rule; format: physicochemical; conditions: heading: ΔpKa [= pKa – pKa]; for the adduct of the API (acid) with TYA (base)
# [2] = Aqueous solubility tests by solution 1H NMR; conditions: for solubility at 3 days: deionized water, water, thermodynamic from solid
# [3] = ref PubChem; cited from earlier work
SMILES,ΔpKa [1],solubility at 3 days [2] [µg/mL],"Increase in aqueous solubility of adduct versus pure API ([2]; aqueous solution, adduct versus pure API) [fold]","Aqueous solubility ([2]; deionized H2O, stirred 3 days, filtered, 1H NMR at 298 K with TSP internal standard, concentration of the drug in solution, average of three measurements ± standard deviation) [mg/mL]",pKa [3]
"CC(C(=O)O)c1ccc(-c2ccccc2)c(F)c1 (racemic) [FLU, (±)‐2‐(2‐fluorobiphenyl‐4‐yl)propionic acid]",5.44,19 ± 2,–,–,–
"O=C(O)c1cc(-c2ccc(F)cc2F)ccc1O [DIF, 2′,4′‐difluoro‐4‐hydroxy‐[1,1′‐biphenyl]‐3‐carboxylic acid]",6.36,28 ± 2,–,–,–
NCCc1ccc(O)cc1.O=C(O)c1cc(-c2ccc(F)cc2F)ccc1O [DIF-TYA Form II],–,–,17,0.473 ± 0.079,–
"NCCc1ccc(O)cc1 [TYA, 4‐(2‐aminoethyl)phenol]",–,–,–,–,9.66^[ ^a ^]
